The text below walks through data of US20230150974A1 (Foghorn Therapeutics Inc., priority 2020, published 2023).

For one assay, the target named is T1, HiBiT-BRM (Homo sapiens, UniProt P51531).
T1 construct: expressed in transfected cells
Put plainly: HiBiT-BRM cell-based degradation assay (Nano-Glo HiBiT Lytic Detection). The following applies: HeLa cells expressing HiBiT-BRM, 24 h; for DC50: read-out: BRM HiBit Degradation IC50. In a few lines: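 Luminescence from HiBiT–LgBiT complementation in lysates of a stable HiBiT-BRM HeLa line measured after 24 h compound exposure. Degradation expressed as percent relative to DMSO-treated cells and cells given 2 μM of a known BRM/BRG1 degrader.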

The target in the next assay is T2, HiBit-BRG1 (Homo sapiens, UniProt P51532).
T2 construct: expressed in transfected cells
Put plainly: HiBit-BRG1 cell-based degradation assay (Nano-Glo HiBiT Lytic Detection). The following applies: HeLa cells expressing HiBit-BRG1 and LgBit, 24 h; for DC50: read-out: BRG1 HiBit Degradation IC50; for Dmax: read-out: BRG1 HiBit Degradation Maximum (%). In outline:
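Seed 5000 HeLa HiBit-BRG1/LgBit cells per well; treat 24 h; equilibrate 15 min at room temperature; add Nano-Glo HiBiT lytic reagent, shake 10 min, read luminescence. Percent degradation is scaled between DMSO and 2 μM reference degrader wells.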

T2 sequence (P51532 whole entry): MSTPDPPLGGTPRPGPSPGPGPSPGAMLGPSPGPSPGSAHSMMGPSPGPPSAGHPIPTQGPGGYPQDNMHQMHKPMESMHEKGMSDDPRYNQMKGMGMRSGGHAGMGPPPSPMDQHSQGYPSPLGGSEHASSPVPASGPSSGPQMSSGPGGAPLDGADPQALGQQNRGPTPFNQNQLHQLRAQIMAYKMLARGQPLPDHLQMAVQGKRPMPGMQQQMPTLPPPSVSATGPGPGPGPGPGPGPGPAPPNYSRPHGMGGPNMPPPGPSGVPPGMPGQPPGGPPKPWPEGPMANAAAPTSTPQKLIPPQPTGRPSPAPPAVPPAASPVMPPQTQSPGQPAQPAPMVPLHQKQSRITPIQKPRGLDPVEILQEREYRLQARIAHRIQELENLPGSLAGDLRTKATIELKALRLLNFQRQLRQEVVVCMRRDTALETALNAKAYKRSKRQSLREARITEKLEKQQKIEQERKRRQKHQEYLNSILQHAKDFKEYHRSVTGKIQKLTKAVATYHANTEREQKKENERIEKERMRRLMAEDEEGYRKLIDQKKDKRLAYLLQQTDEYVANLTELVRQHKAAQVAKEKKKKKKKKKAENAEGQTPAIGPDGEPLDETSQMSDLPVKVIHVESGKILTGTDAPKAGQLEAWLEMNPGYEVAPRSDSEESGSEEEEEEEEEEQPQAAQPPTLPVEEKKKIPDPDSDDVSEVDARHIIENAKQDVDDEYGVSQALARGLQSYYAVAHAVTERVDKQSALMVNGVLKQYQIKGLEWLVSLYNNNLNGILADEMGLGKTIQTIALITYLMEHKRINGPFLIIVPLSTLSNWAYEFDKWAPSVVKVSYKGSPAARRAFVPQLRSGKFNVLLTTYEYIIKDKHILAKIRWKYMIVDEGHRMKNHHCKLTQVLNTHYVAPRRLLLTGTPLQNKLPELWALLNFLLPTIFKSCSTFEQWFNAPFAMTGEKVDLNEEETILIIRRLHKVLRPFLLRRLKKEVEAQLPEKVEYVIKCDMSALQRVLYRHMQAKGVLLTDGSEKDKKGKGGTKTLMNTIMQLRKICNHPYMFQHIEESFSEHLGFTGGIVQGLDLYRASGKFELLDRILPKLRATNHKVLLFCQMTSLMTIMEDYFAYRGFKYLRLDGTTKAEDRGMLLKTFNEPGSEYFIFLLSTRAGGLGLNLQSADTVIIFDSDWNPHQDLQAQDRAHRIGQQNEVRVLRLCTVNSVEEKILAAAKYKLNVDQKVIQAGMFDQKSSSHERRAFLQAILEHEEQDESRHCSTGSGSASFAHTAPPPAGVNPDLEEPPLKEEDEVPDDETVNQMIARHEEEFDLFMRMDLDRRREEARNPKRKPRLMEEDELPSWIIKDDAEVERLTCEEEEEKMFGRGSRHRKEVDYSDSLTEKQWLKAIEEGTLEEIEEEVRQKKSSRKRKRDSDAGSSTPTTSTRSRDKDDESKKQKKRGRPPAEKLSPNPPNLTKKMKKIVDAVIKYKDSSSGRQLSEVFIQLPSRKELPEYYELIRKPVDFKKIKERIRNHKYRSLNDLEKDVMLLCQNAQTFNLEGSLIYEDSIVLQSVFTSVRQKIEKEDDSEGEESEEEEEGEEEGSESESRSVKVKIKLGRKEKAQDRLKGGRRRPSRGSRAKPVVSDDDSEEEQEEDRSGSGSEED
T1 sequence (P51531 whole entry): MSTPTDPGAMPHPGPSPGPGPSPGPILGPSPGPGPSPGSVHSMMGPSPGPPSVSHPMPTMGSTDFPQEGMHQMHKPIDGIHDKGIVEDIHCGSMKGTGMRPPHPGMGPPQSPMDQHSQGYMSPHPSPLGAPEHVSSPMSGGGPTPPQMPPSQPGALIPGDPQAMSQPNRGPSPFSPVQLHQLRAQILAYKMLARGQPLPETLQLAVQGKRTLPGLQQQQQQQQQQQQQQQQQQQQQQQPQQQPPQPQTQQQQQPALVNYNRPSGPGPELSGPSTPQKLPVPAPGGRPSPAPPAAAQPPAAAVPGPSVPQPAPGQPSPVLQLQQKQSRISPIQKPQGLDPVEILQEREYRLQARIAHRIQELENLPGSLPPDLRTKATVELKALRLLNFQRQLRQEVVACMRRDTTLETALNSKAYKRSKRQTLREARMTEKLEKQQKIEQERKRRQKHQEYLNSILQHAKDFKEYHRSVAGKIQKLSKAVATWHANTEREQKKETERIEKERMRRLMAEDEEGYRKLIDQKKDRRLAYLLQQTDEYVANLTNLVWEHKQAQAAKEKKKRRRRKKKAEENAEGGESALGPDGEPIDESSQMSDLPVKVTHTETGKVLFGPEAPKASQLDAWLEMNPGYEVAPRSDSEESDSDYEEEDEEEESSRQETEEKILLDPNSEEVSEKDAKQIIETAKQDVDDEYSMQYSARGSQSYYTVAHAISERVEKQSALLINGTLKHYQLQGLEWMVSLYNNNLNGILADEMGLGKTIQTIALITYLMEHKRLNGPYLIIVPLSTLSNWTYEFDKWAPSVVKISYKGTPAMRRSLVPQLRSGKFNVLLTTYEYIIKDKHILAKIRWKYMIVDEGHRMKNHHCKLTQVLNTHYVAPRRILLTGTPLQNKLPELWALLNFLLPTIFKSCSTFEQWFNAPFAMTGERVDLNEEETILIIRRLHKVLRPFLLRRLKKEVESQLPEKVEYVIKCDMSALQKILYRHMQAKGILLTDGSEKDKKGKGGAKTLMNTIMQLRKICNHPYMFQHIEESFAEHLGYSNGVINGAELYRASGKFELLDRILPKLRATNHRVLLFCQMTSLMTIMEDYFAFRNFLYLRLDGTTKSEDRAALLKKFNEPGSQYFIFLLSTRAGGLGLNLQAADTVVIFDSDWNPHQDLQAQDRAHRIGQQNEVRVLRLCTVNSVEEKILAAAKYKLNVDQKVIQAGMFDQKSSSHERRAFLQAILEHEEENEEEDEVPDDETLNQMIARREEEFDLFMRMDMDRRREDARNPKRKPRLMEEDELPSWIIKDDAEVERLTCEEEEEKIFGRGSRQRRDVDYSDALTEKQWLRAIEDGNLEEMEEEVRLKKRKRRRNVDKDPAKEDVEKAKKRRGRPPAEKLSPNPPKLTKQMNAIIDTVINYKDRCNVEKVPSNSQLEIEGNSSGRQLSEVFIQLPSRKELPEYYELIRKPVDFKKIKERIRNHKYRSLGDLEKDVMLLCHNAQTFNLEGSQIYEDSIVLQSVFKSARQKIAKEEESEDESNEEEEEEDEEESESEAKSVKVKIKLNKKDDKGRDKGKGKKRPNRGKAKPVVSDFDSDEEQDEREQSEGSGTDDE

On to `Cc1ncsc1-c1ccc([C@H](C)NC(=O)[C@@H]2C[C@@H](O)CN2C(=O)[C@@H](c2cc(OCCN3C[C@H]4CC[C@@H](C3)N4C(=O)c3ccc(CCOc4cc(-c5ccccc5O)nnc4N)cc3)no2)C(C)C)cc1` [Compound 220, (2S,4R)-1-((2R)-2-(3-(2-(8-(4-(2-((3-amino-6-(2-hydroxyphenyl)pyridazin-4-yl)oxy)ethyl)benzoyl)-3,8-diazabicyclo[3.2.1]octan-3-yl)ethoxy)isoxazol-5-yl)-3-methylbutanoyl)-4-hydroxy-N-((S)-1-(4-(4-methylthiazol-5-yl)phenyl)ethyl)pyrrolidine-2-carboxamide], for which, on HiBiT-BRM, the “BRM HiBit Degradation Maximum (%)” value is recorded as “A (“A” indicates maximum degradation ≥75%)” and the DC50 was below 10 nM. Besides, at HiBit-BRG1, the DC50 is above 10 nM and the Dmax is above 75%.

`Cc1nc2cccc(NCCCCCCNC(=O)c3ccc(CCOc4cc(-c5ccccc5O)nnc4N)cc3)c2c(=O)n1C1CCC(=O)NC1=O` (centres unmarked) [Compound 52, 4-(2-[[3-amino-6-(2-hydroxyphenyl)pyridazin-4-yl]oxy]ethyl)-N-(6-[[3-(2,6-dioxopiperidin-3-yl)-2-methyl-4-oxoquinazolin-5-yl]amino]hexyl)benzamide]: at HiBiT-BRM, the “BRM HiBit Degradation Maximum (%)” value is “C (“C” indicates maximum degradation <50%)” and the DC50 was above 1000 nM. In addition, at HiBit-BRG1, the DC50 is above 1000 nM and the Dmax was below 50%.

Consider `Cc1ncsc1-c1ccc([C@H](C)NC(=O)[C@@H]2C[C@@H](O)CN2C(=O)[C@@H](NC(=O)CCCCCCCCCCCCCCCC(=O)NCc2ccc(CCOc3cc(-c4ccccc4O)nnc3N)cc2)C(C)(C)C)cc1` [Compound 172, N1-(4-(2-((3-amino-6-(2-hydroxyphenyl)pyridazin-4-yl)oxy)ethyl)benzyl)-N17-((S)-1-((2S,4R)-4-hydroxy-2-(((S)-1-(4-(4-methylthiazoi-5-yl)phenyl)ethyl)carbamoyl)pyrrolidin-1-yl)-3,3-dimethyl-1-oxobutan-2-yl)heptadecanediamide], for which, at HiBiT-BRM, the “BRM HiBit Degradation Maximum (%)” value is “A (“A” indicates maximum degradation ≥75%)” and the DC50 was above 10 nM. Besides, at HiBit-BRG1, the DC50 was above 100 nM and the Dmax is above 50%.

On to `Nc1nnc(-c2ccccc2O)cc1OCCc1ccc(CNC(=O)CCCCNc2cccc3c2CN(C2CCC(=O)NC2=O)C3=O)cc1` (centres unmarked) [Compound 2, N-(4-(2-((3-amino-6-(2-hydroxyphenyl)pyridazin-4-yl)oxy)ethyl)benzyl)-5-((2-(2,6-dioxopiperidin-3-yl)-1-oxoisoindolin-4-yl)amino)pentanamide], for which the “BRM HiBit Degradation Maximum (%)” value on HiBiT-BRM was “C (“C” indicates maximum degradation <50%)”. Also, the DC50 on HiBiT-BRM and on HiBit-BRG1 was above 1000 nM throughout.

Regarding `Cc1ncsc1-c1ccc([C@H](C)NC(=O)[C@@H]2C[C@@H](O)CN2C(=O)[C@@H](c2cc(OCCN(C)Cc3ccc(CCOc4cc(-c5ccccc5O)nnc4N)cc3)no2)C(C)C)cc1` [Compound 251, (2S,4R)-1-((R)-2-(3-(2-((4-(2-((3-amino-6-(2-hydroxyphenyl)pyridazin-4-yl)oxy)ethyl)benzyl)(methyl)amino)ethoxy)isoxazol-5-yl)-3-methylbutanoyl)-4-hydroxy-N-((S)-1-(4-(4-methylthiazol-5-yl)phenyl)ethyl)pyrrolidine-2-carboxamide], at HiBiT-BRM, the “BRM HiBit Degradation Maximum (%)” value is “A (“A” indicates maximum degradation ≥75%)” and the DC50 is below 10 nM. In addition, at HiBit-BRG1, the DC50 was below 10 nM and the Dmax was above 75%.

In the case of `Nc1nnc(-c2ccccc2O)cc1OCCc1ccc(CNCCN2CC3CC2CN3c2cccc3c2C(=O)N(C2CCC(=O)NC2=O)C3=O)cc1` (centres unmarked) [Compound 158, 4-(5-(2-((4-(2-((3-amino-6-(2-hydroxyphenyl)pyridazin-4-yl)oxy)ethyl)benzyl)amino)ethyl)-2,5-diazabicyclo[2.2.1]heptan-2-yl)-2-(2,6-dioxopiperidin-3-yl)isoindoline-1,3-dione], at HiBiT-BRM, the “BRM HiBit Degradation Maximum (%)” value is listed as “B (“B” indicates maximum degradation ≥50%)” and the DC50 is above 100 nM. For the same compound, at HiBit-BRG1, the DC50 was above 100 nM and the Dmax was above 50%.
